Reference: the supplement of paper PMC10307832

Key:
Experiment in all cases: relative viability (nuclei count vs DMSO), 5 days (fraction); higher = more cells survive
MK-8033 + Phenformin = compound: Cn1cc(-c2cnc3ccc4ccc(CS(=O)(=O)NCc5ccccn5)cc4c(=O)c3c2)cn1 [MK-8033] + N=C(N)NC(=N)NCCc1ccccc1 [Phenformin] (partner 250 µM)
Procedure, shortened: (§1)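 One day after seeding in 1536-well plates, lung cancer cell lines were dosed by pin tool. Dosing was either single-drug or a fixed anchor-drug dose plus five library-drug doses (not always all listed) in √10 steps. After 5 days, nuclei were stained in one fix-and-stain step and counted on 4× images, and relative viability is the nuclei count of treated wells over that of vehicle wells, given as the median of duplicate plates.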

RU-SKI 43 + Trametinib = compound: CC[C@@H](C)CNCC(=O)N1CCC2=C([C@@H]1COC3=CC=CC(=C3)C)C=CS2 [RU-SKI 43] + CC(=O)Nc1cccc(-n2c(=O)n(C3CC3)c(=O)c3c(Nc4ccc(I)cc4F)n(C)c(=O)c(C)c32)c1 [Trametinib] (partner 0.02 µM)
Procedure, shortened: as §1

MK-8033 + Navitoclax = compound: Cn1cc(-c2cnc3ccc4ccc(CS(=O)(=O)NCc5ccccn5)cc4c(=O)c3c2)cn1 [MK-8033] + CC1(C)CCC(c2ccc(Cl)cc2)=C(CN2CCN(c3ccc(C(=O)NS(=O)(=O)c4ccc(N[C@H](CCN5CCOCC5)CSc5ccccc5)c(S(=O)(=O)C(F)(F)F)c4)cc3)CC2)C1 [Navitoclax] (partner 0.5 µM)
Procedure, shortened: as §1

MK-8033 + Olaparib = compound: Cn1cc(-c2cnc3ccc4ccc(CS(=O)(=O)NCc5ccccn5)cc4c(=O)c3c2)cn1 [MK-8033] + O=C(c1cc(Cc2n[nH]c(=O)c3ccccc23)ccc1F)N1CCN(C(=O)C2CC2)CC1 [Olaparib] (partner 8 µM)
Procedure, shortened: as §1

Cell Line	relative viability (MK-8033 + Phenformin; first compound 0.02 µM)	relative viability (MK-8033 + Phenformin; first compound 0.06325 µM)	relative viability (MK-8033 + Phenformin; first compound 0.2 µM)	relative viability (MK-8033 + Phenformin; first compound 0.6325 µM)	relative viability (MK-8033 + Phenformin; first compound 2 µM)	relative viability (RU-SKI 43 + Trametinib; first compound 0.1 µM)	relative viability (RU-SKI 43 + Trametinib; first compound 0.3162 µM)	relative viability (RU-SKI 43 + Trametinib; first compound 1 µM)	relative viability (RU-SKI 43 + Trametinib; first compound 3.162 µM)	relative viability (RU-SKI 43 + Trametinib; first compound 10 µM)	relative viability (MK-8033 + Navitoclax; first compound 0.02 µM)	relative viability (MK-8033 + Navitoclax; first compound 0.06325 µM)	relative viability (MK-8033 + Navitoclax; first compound 0.2 µM)	relative viability (MK-8033 + Navitoclax; first compound 0.6325 µM)	relative viability (MK-8033 + Navitoclax; first compound 2 µM)	relative viability (MK-8033 + Olaparib; first compound 0.02 µM)	relative viability (MK-8033 + Olaparib; first compound 0.06325 µM)	relative viability (MK-8033 + Olaparib; first compound 0.2 µM)	relative viability (MK-8033 + Olaparib; first compound 0.6325 µM)	relative viability (MK-8033 + Olaparib; first compound 2 µM)
LU99A	0.859	0.747	0.773	0.845	0.751	0.561	0.65	0.595	0.553	0.489	0.751	0.667	0.794	0.819	0.593	0.28	0.222	0.223	0.266	0.22
LXF-289	0.559	0.504	0.499	0.547	0.538	0.682	0.743	0.728	0.66	0.66	0.945	0.928	0.923	0.979	0.941	1.06	1.05	1.02	1.12	1.03
NCI-H23	0.795	0.81	0.715	0.857	0.814	0.395	0.392	0.38	0.443	0.348	0.938	0.777	0.682	0.779	0.837	0.295	0.307	0.221	–	0.332
NCI-H322M	0.779	0.662	0.698	0.936	0.749	0.492	0.553	0.534	0.565	0.553	1.24	1.08	1.18	1.2	1.17	0.725	0.762	0.733	0.782	0.739
NCI-H441	0.997	0.739	0.645	0.955	0.732	0.483	0.426	0.552	0.45	0.265	0.566	0.448	0.569	0.573	0.415	0.628	0.446	0.56	0.529	0.59
NCI-H460	0.543	0.486	0.506	0.542	0.491	0.224	0.2	0.141	0.197	0.0732	0.975	0.921	1.01	1.19	1.04	0.419	0.462	0.36	0.498	0.413
NCI-H520	0.766	0.424	0.503	0.639	0.542	0.79	1.02	0.654	0.794	0.45	1.14	1.03	1.02	1.06	0.975	0.306	0.326	0.357	0.307	0.315
NCI-H596	0.854	0.662	0.741	0.657	0.627	0.775	0.883	0.858	0.793	0.717	0.923	0.884	0.856	0.857	0.951	0.698	0.613	0.616	0.7	0.737
NCI-H647	0.508	0.448	0.509	0.546	0.549	0.445	0.57	0.472	0.521	0.439	1.11	1.01	1.09	1.04	0.999	0.7	0.476	0.479	0.661	0.515
NCI-H727	0.7	–	0.435	0.627	0.465	–	0.388	0.449	0.372	0.374	0.377	0.435	0.311	0.465	0.486	0.679	0.603	0.337	0.702	0.808
NCI-H838	0.622	0.572	0.524	0.555	0.543	0.491	0.645	0.471	0.529	0.505	1.13	1.14	1.01	1.22	1.08	0.783	0.727	0.707	0.753	0.716
NCI-H1355	0.444	0.401	0.424	0.435	0.432	0.451	0.437	0.376	0.477	0.464	0.911	0.897	0.894	0.981	0.928	0.759	0.759	0.632	0.756	0.696
NCI-H1395	0.448	0.412	0.43	0.45	0.416	1.06	1.2	1.23	0.98	0.981	1.38	1.02	1.04	1.15	1.07	0.448	0.362	0.463	0.469	0.462
NCI-H1437	0.293	0.291	0.291	0.324	0.267	0.492	0.555	0.59	0.527	0.363	1.03	1.03	1.01	1	0.953	0.632	0.619	0.596	0.633	0.598
NCI-H1650	0.412	0.285	0.38	0.441	0.399	0.556	0.703	0.533	0.712	0.55	1.21	1.13	1.11	1.11	1.18	0.808	0.646	0.688	0.797	0.713
NCI-H1651	0.429	0.29	0.346	0.312	0.304	0.793	0.876	0.966	0.893	0.835	1.06	1.03	1.07	1.13	1.02	0.202	0.175	0.181	0.178	0.16

Cell Line	relative viability (MK-8033 + Phenformin; first compound 0.02 µM)	relative viability (MK-8033 + Phenformin; first compound 0.06325 µM)	relative viability (MK-8033 + Phenformin; first compound 0.2 µM)	relative viability (MK-8033 + Phenformin; first compound 0.6325 µM)	relative viability (MK-8033 + Phenformin; first compound 2 µM)	relative viability (RU-SKI 43 + Trametinib; first compound 0.1 µM)	relative viability (RU-SKI 43 + Trametinib; first compound 0.3162 µM)	relative viability (RU-SKI 43 + Trametinib; first compound 1 µM)	relative viability (RU-SKI 43 + Trametinib; first compound 3.162 µM)	relative viability (RU-SKI 43 + Trametinib; first compound 10 µM)	relative viability (MK-8033 + Navitoclax; first compound 0.02 µM)	relative viability (MK-8033 + Navitoclax; first compound 0.06325 µM)	relative viability (MK-8033 + Navitoclax; first compound 0.2 µM)	relative viability (MK-8033 + Navitoclax; first compound 0.6325 µM)	relative viability (MK-8033 + Navitoclax; first compound 2 µM)	relative viability (MK-8033 + Olaparib; first compound 0.02 µM)	relative viability (MK-8033 + Olaparib; first compound 0.06325 µM)	relative viability (MK-8033 + Olaparib; first compound 0.2 µM)	relative viability (MK-8033 + Olaparib; first compound 0.6325 µM)	relative viability (MK-8033 + Olaparib; first compound 2 µM)
NCI-H1666	0.588	0.598	0.548	0.612	0.527	0.831	0.804	0.803	0.845	0.68	0.959	0.852	0.951	1.1	0.924	0.755	0.683	0.659	0.82	0.774
NCI-H1734	0.435	0.338	0.366	0.361	0.37	0.656	0.758	0.724	0.695	0.622	0.811	0.818	0.763	0.878	0.837	0.644	0.553	0.546	0.615	0.648
NCI-H1755	0.603	0.572	0.605	0.682	0.653	0.751	0.866	0.839	0.833	0.768	0.829	0.988	0.983	1.01	0.966	0.899	0.916	0.863	0.846	0.735
NCI-H1792	0.346	0.267	–	0.282	0.225	0.36	0.53	0.486	0.327	0.362	0.826	0.649	0.593	0.61	0.653	0.451	0.448	0.337	0.351	0.3
NCI-H1793	0.383	0.284	0.316	0.394	0.293	0.439	0.386	0.435	0.473	0.479	0.454	–	0.291	0.38	0.508	0.863	–	0.688	0.894	0.94
NCI-H1915	0.356	0.315	0.373	0.391	0.376	0.296	0.34	0.311	0.288	0.265	0.812	0.699	0.801	0.811	0.783	0.243	0.241	0.267	0.252	0.259
NCI-H1944	0.186	0.159	0.19	0.198	0.181	0.349	0.406	0.417	0.387	0.388	1.15	–	0.991	1.02	1.03	0.402	0.365	0.39	0.39	0.415
NCI-H1975	0.409	0.417	0.405	–	0.364	0.311	0.351	0.355	0.296	0.257	1.12	0.92	1.08	1.08	1.07	0.721	0.757	0.789	0.77	0.78
NCI-H1993	0.591	0.469	0.497	0.537	0.488	0.474	0.514	0.615	0.579	0.694	0.866	0.781	0.859	0.83	0.708	0.996	1.01	0.705	0.946	0.669
NCI-H2009	0.524	0.476	0.456	0.482	0.463	0.28	0.295	0.291	0.313	0.244	1.16	1.12	1.08	1.15	1.14	0.716	0.683	0.632	0.712	0.707
NCI-H2023	0.41	0.348	0.348	0.356	0.306	0.585	0.643	0.547	0.685	0.528	1.08	0.881	0.933	0.943	0.847	0.534	0.415	0.439	0.493	0.396
NCI-H2085	0.736	0.554	0.694	0.703	0.674	0.506	0.493	0.494	0.653	0.499	1.03	1.03	1.1	1.13	1.14	0.771	0.788	0.766	0.794	0.73
NCI-H2087	0.5	0.434	0.417	0.435	0.386	0.233	0.159	0.221	0.189	0.161	1.1	0.877	0.916	1	1.05	0.593	0.57	0.535	0.492	0.622
NCI-H2126	0.511	0.494	0.497	0.533	0.51	0.56	0.605	0.506	0.607	0.559	0.836	0.838	0.861	0.832	0.827	0.978	0.921	0.806	0.903	0.875
NCI-H2170	0.447	0.424	0.374	0.407	0.399	0.975	1.39	1.04	0.908	0.946	0.559	0.55	0.612	0.586	0.597	0.602	0.539	0.648	0.59	0.536
NCI-H2228	0.399	0.287	0.345	0.294	0.299	0.37	0.55	0.466	0.396	0.306	1.37	0.876	0.754	0.54	0.839	0.79	0.568	0.52	0.865	0.619
